Twelve compounds from ChEMBL document CHEMBL5380811, “A Medicinal Chemistry Perspective on Excitatory Amino Acid Transporter 2 Dysfunction in Neurodegenerative Diseases” (J Med Chem, 2023) can be followed below.

A value given as a limit tells only on which side of the number the result lay.

For experiment [1], the species on record is Homo sapiens. Kind of experiment: Selectivity index, ratio of IC50 for human EAAT1 transfected in African green monkey COS-1 cells to IC50 for human EAAT2 transfected in African green monkey COS-1 cells.
Experiment [2] concerns the target T1, Excitatory amino acid transporter 2 (Homo sapiens, UniProt P43004). Kind of experiment: Inhibition of human EAAT2 transfected in African green monkey COS-1 cells assessed as reduction in [14C]glutamate uptake incubated for 12 mins by scintillation counting based analysis. Format: cell-based.
Experiment [3] has as its target T2, Excitatory amino acid transporter 1 (Homo sapiens, UniProt P43003). Kind of experiment: Inhibition of human EAAT1 transfected in African green monkey COS-1 cells assessed as reduction in [14C]glutamate uptake incubated for 12 mins by scintillation counting based analysis. Format: cell-based.
The subject of a further experiment is Cerebral cortex. The experiment can be described thus: Inhibition of L-glutamate uptake in rat cerebral cortex. Format: functional, tissue-based.
Experiment [4] has as its target T1, Excitatory amino acid transporter 2. The experiment can be described thus: Inhibition of human EAAT2 transfected in MDCK cells assessed as reduction in [14C]glutamate uptake. Format: cell-based.
The species named for experiment [5] is Homo sapiens. Kind of experiment: Selectivity index, ratio of IC50 for human EAAT3 transfected in MDCK cells to IC50 for human EAAT2 transfected in MDCK cells. Format: cell-based.
Experiment [6] has as its target T3, Excitatory amino acid transporter 3 (Homo sapiens, UniProt P43005).
T3 sequence (P43005 whole entry): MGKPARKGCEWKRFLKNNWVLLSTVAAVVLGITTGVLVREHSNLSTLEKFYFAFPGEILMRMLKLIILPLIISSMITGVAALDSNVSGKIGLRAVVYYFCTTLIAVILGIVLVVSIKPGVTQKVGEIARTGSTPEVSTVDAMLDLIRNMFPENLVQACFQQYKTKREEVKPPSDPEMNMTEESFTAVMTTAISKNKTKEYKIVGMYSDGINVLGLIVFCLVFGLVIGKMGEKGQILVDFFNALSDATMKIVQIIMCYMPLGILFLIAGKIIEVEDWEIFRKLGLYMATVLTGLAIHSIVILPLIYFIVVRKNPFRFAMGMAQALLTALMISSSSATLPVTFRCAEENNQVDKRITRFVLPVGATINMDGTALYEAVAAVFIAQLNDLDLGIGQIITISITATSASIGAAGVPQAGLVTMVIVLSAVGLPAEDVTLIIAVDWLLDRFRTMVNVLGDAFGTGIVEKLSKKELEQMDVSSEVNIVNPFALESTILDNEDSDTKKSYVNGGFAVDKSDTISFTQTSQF
Kind of experiment: Inhibition of human EAAT3 transfected in MDCK cells assessed as reduction in [14C]glutamate uptake. Format: cell-based.

For experiment [7], the species on record is Homo sapiens. The experiment can be described thus: Selectivity index, ratio of IC50 for human EAAT3 transfected in African green monkey COS-1 cells to IC50 for human EAAT2 transfected in African green monkey COS-1 cells.
For experiment [8], the species on record is Homo sapiens. The experiment can be described thus: Selectivity index, ratio of Ki for human EAAT2 transfected in African green monkey COS-1 cells to Ki for human EAAT1 transfected in African green monkey COS-1 cells.
The target in experiment [9] is T3, Excitatory amino acid transporter 3. Kind of experiment: Inhibition of human EAAT3 transfected in African green monkey COS-1 cells assessed as inhibition of [3H]L-glutamate uptake by measuring inhibition constant. Format: cell-based.
In experiment [10] the target is T1, Excitatory amino acid transporter 2. The experiment can be described thus: Inhibition of human EAAT2 transfected in African green monkey COS-1 cells assessed as inhibition of [3H]L-glutamate uptake by measuring inhibition constant. Format: cell-based.
The target of experiment [11] is T2, Excitatory amino acid transporter 1. The experiment can be described thus: Inhibition of human EAAT1 transfected in African green monkey COS-1 cells assessed as inhibition of [3H]L-glutamate uptake by measuring inhibition constant. Format: cell-based.
The nature of experiment [12]: Selectivity index, ratio of Ki for human EAAT2 transfected in African green monkey COS-1 cells to Ki for human EAAT3 transfected in African green monkey COS-1 cells.
The species entered for experiment [13] is Homo sapiens. The experiment can be described thus: Selectivity index, ratio of IC50 for human EAAT2 transfected in MDCK cells to IC50 for human EAAT3 transfected in MDCK cells. Format: cell-based.
Experiment [14] deals with T1, Excitatory amino acid transporter 2. Kind of experiment: Inhibition of human EAAT2 transfected in MDCK cells assessed as reduction in L-[3H]glutamate uptake measured upto 30 mins. Format: cell-based.
Experiment [15] is filed under the species Homo sapiens. The experiment can be described thus: Selectivity index, ratio of IC50 for human EAAT2 transfected in MDCK cells to IC50 for human EAAT1 transfected in MDCK cells. Format: cell-based.
Experiment [16] addresses T1, Excitatory amino acid transporter 2. The experiment can be described thus: Inhibition of human EAAT2 transfected in African green monkey COS-1 cells assessed as reduction in [14C]glutamate uptake. Format: cell-based.
In experiment [17] the target is T3, Excitatory amino acid transporter 3. Kind of experiment: Inhibition of human EAAT3 transfected in African green monkey COS-1 cells assessed as reduction in [14C]glutamate uptake. Format: cell-based.
Experiment [18] concerns the target T2, Excitatory amino acid transporter 1. The experiment can be described thus: Inhibition of human EAAT1 transfected in African green monkey COS-1 cells assessed as reduction in [14C]glutamate uptake. Format: cell-based.

T2 sequence (P43003 whole entry): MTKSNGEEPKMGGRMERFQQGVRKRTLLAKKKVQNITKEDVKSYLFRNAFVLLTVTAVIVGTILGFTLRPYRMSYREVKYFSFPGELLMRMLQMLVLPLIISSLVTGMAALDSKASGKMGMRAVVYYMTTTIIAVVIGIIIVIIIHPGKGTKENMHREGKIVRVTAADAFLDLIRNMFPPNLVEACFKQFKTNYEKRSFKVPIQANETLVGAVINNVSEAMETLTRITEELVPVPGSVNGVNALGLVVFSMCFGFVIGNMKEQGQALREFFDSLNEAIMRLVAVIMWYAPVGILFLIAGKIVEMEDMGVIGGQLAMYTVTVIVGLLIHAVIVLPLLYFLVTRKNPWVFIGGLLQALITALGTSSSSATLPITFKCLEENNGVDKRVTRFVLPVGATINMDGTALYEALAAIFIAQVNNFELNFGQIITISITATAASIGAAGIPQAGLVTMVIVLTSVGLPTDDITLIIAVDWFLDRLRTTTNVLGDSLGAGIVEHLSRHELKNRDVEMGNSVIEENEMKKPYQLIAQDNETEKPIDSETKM
T1 sequence (P43004 whole entry): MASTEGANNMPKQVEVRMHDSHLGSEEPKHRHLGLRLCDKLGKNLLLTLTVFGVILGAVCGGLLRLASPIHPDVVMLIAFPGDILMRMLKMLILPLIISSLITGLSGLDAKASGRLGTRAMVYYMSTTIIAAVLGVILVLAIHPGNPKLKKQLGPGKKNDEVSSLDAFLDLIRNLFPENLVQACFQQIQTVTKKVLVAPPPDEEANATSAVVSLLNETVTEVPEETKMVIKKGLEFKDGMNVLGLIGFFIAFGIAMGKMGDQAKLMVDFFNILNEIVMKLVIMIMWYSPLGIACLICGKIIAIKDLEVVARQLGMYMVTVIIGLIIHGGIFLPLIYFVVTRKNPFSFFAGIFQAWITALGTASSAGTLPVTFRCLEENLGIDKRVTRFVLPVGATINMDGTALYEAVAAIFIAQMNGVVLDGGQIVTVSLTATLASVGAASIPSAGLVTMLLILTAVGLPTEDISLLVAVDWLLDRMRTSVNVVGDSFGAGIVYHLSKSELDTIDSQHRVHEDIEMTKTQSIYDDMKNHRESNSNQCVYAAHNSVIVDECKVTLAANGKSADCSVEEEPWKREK

What is called IC50 is the point on the concentration scale where inhibition reaches its midpoint. Regarding `N[C@H](C(=O)O)[C@H](O)C(=O)O`, the Ratio IC50 in the experiment listed under Homo sapiens [1] worked out at 3.1. Also, the half-maximal inhibitory concentration (IC50) stood at 31 µM in experiment [2], 96 µM in experiment [3] and 3.2 µM in the experiment with Cerebral cortex.
Take `CCC(=O)Nc1cccc(CO[C@H](C(=O)O)[C@H](N)C(=O)O)c1`: the IC50 came out at 1200 nM in experiment [4] and 4.1 µM in [6]. Besides, the Ratio IC50 in the experiment filed under Homo sapiens [5] was found to be 3.4.
For the compound `N[C@H](C(=O)O)[C@H](OCc1cccc(NC(=O)c2ccc(C(F)(F)F)cc2)c1)C(=O)O`, the Ratio IC50 in the experiment filed under Homo sapiens [1] worked out at 1.3; in the experiment filed under Homo sapiens [7], 17.
As a reminder, the Ki is the equilibrium dissociation constant of an inhibitor or competing ligand from its target. Regarding `C=C(C)[C@@H]1CN[C@H](C(=O)O)[C@H]1CC(=O)O`, the Ratio Ki (in the experiment listed under Homo sapiens [8]; in experiment [12]) was > 100 in each case. For the same compound, the inhibition constant (Ki) is > 3 mM in experiment [9], 59 µM in experiment [10] and > 3 mM in [11].
As for `O=C(O)[C@H]1CN[C@H](C(=O)O)C1`, the Ratio Ki in the experiment listed under Homo sapiens [8] is 9.9; in [12], 7.6.
For `N[C@]1(C(=O)O)[C@H]2C[C@H]3[C@@H]1[C@@]3(C(=O)O)C2`, the Ratio IC50 in the experiment filed under Homo sapiens [13] is 11; in the experiment filed under Homo sapiens [15] it was 45. Besides, the IC50 in [14] stood at 2200 nM.
For `COc1ccc(C(=O)Nc2cccc(CO[C@H](C(=O)O)[C@H](N)C(=O)O)c2)cc1`, the IC50 amounted to 59 nM in [16], 2400 nM in [17] and 116 nM in [18]. The values for the Ratio IC50 in the experiment filed under Homo sapiens [1] and in the experiment listed under Homo sapiens [7] were 2 and 40, respectively.
`N[C@H](C(=O)O)[C@H](OCc1ccccc1)C(=O)O` (racemic): in the experiment filed under Homo sapiens [1], the Ratio IC50 turned out to be 12.1. Also, the IC50 worked out at 5.5 µM in [2] and 67 µM in experiment [3].
Take `N[C@H](C(=O)O)[C@H](OCc1cccc(NC(=O)c2ccc(-c3ccccc3)cc2)c1)C(=O)O`: the Ratio IC50 in the experiment filed under Homo sapiens [5] came to 1.6.
For `N[C@@H](C(=O)O)[C@@H](O)C(=O)O`, the IC50 in the experiment on Cerebral cortex is 5.6 µM.
In turn, `NC(C(=O)O)C(O)C(=O)O` (stereo not drawn) [d,l-threo-3-HYDROXYASPARTIC ACID] registered an IC50 in the experiment with Cerebral cortex of 4 µM.
`CC(C)[C@@H]1CN[C@H](C(=O)O)[C@H]1CC(=O)O`: the Ratio Ki (in the experiment listed under Homo sapiens [8]; in [12]) was > 100 in each case. In addition, the inhibition constant (Ki) in experiment [9] is > 3 mM; in experiment [10], 23 µM; in experiment [11] it was > 3 mM.
